Data as given in article PMC7651859, “Identification of 6-amino-1H-pyrazolo[3,4-d]pyrimidines with in vivo efficacy against visceral leishmaniasis” (RSC Medicinal Chemistry, 2020).
Converted amounts (≈) assume the structure as drawn.

Columns and labels:
L. donovani amastigotes = test: Ld InMac intramacrophage Leishmania donovani assay; type: cell-based; conditions: Leishmania donovani; L. donovani amastigotes in THP-1 cells; mean of n ≥ 3; read-out: Ld InMac pEC50 (converted)
From the text: (§1) For the identification of DDD853651/GSK3186899, which contained a trans-1,4-cyclohexyldiamine, a key strategy was to optimise the balance between potency in the intracellular Leishmania assay (L. donovani in THP-1 cells, referred to as Ld InMac assay[9]) and solubility.[10] In that case, we focused on 2 (Table 1), where the sulfonamide was required for potency but was poorly soluble. […] To this end, we examined a 4-aminopiperidine central unit with both sulfonamide and amide substituents (Table 1). […] We therefore selected 4 as a suitable start-point for further chemistry. […] We noted that either lengthening the linker to the aromatic ring, or removing it, led to a loss of activity (6 and 7 respectively).
(§2) Intramacrophage Leishmania donovani Assay

THP-1 cells = test: THP-1 host cell toxicity readout of the Ld InMac assay; type: cell-based; conditions: Homo sapiens; host THP-1 cells; mean of n ≥ 3; read-out: THP-1 pEC50 (converted)
From the text: as §1, §2

[1] = CAD kinetic aqueous solubility; type: physicochemical; conditions: pH 7.4, pH7.4 phosphate buffered saline
Method: CAD Aqueous Solubility 11
5µl of 10mM DMSO stock solution is diluted to 100 µ l with pH7.4 phosphate buffered saline,
equilibrated for 1 hour at room temperature and filtered through Millipore MultiscreenHTS-PCF

[2] = Stability in mouse liver microsomes (intrinsic clearance); type: in vitro ADME; conditions: mouse liver microsomal intrinsic clearance, 0.5 μM
Method: Stability in Microsomes 10
Test compound (0.5 μM) was incubated with female CD1 mouse (Xenotech) liver microsomes and their action started with addition of excess NADPH (8 mg/mL 50 mM potassium phosphate buffer, pH 7.4). Immediately, at time zero, then at 3, 6, 9, 15, and 30 min, an aliquot (50 μL) of the incubation mixture was removed and mixed with acetonitrile (100 μL) to stop the reaction.
Internal standard was added to all samples, the samples centrifuged to sediment precipitated protein, and the plates then sealed prior to UPLC-MS/MS analysis using a Xevo TQs micro (Waters Corporation, USA). XLfit (IDBS, UK) was used to calculate the exponential decay and consequently the rate constant (k) from the ratio of the peak area of test compound to internal standard at each time point. The rate of intrinsic clearance (Cl i) of each test compound was then calculated using the equation Cl i (mL/min/g liver) = k × V × microsomal protein yield, where V (mL/mg protein) is the incubation volume/mg protein added and […]
microsomal protein yield is taken as 52.5 mg protein/g liver. Verapamil (0.5 μM) was used as a positive control to confirm acceptable assay performance. […]

FaSSIF solubility = type: physicochemical; conditions: fasted state simulated intestinal fluid (FaSSIF)
[3] = Aqueous solubility, values marked with ref 12; type: physicochemical; conditions: values marked [12] in the table (method of ref 12, not CAD)

Structure (SMILES) | EC50 (L. donovani amastigotes) | EC50 (THP-1 cells) | solubility at 1 h [1] | Cli mouse [2] | solubility (FaSSIF solubility) | solubility [3]
COc1ccccc1-c1n[nH]c2nc(NC3CCN(C(=O)Cc4ccc(F)cc4F)CC3)ncc12 [Compound 20] | 79.4 nM | 39.8 µM | < 1 µM | 5.0 ml min^–1 g^–1 | < 1 µg/mL | 
COc1ncccc1-c1n[nH]c2nc(NC3CCN(C(=O)Cc4ccc(F)cc4F)CC3)ncc12 [Compound 21] | 79.4 nM | > 50.1 µM | 25 µM (≈ 12 µg/mL) | 15 ml min^–1 g^–1 |  | 
COc1ccccc1-c1n[nH]c2nc(NC3CCN(S(=O)(=O)CCC(F)(F)F)CC3)ncc12 [Compound 37] | 200 nM | > 50.1 µM | < 1 µM | 14 ml min^–1 g^–1 |  | 
CCOC(=O)N1CCC(Nc2ncc3c(-c4ccccc4OC)n[nH]c3n2)CC1 [Compound 38] | 501 nM | 39.8 µM | 24 µM (≈ 9.51 µg/mL) | 14 ml min^–1 g^–1 |  | 
COc1ccccc1-c1n[nH]c2nc(NC3CCN(C(=O)N4CCOCC4)CC3)ncc12 [Compound 40] | 2000 nM | > 50.1 µM | 79 µM (≈ 34.6 µg/mL) | 2 ml min^–1 g^–1 |  | 
COc1ccccc1-c1n[nH]c2nc(NC3CCN(c4ccc(Cl)nn4)CC3)ncc12 [Compound 41] | 158 nM | > 50.1 µM |  | 3.4 ml min^–1 g^–1 |  | 4 µM (≈ 1.75 µg/mL)
